The values that follow come from US6147100A, “Pyrrolidine derivatives having phospholipase A2 inhibitory activity” (Shionogi & Co., Ltd., priority 1997, dated 2000).

In experiment [1] the test system is production of prostaglandin E2 by human fibroblasts. The experiment in a line: Inhibition of Production of Prostaglandin E2 in Human Fibroblasts (IL-1 stimulation). It is filed as cell-based. The settings on record: Fibroblast; human fibroblasts under stimulation with IL-1. The procedure, abridged: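 Human fibroblasts stimulated with IL-1, with prostaglandin E2 production measured in the presence of compound as a cellular read-out of cPLA2 inhibition.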

Experiment [2] addresses T1, cPLA2 (Homo sapiens, UniProt P47712).
T1 sequence (P47712 1-749): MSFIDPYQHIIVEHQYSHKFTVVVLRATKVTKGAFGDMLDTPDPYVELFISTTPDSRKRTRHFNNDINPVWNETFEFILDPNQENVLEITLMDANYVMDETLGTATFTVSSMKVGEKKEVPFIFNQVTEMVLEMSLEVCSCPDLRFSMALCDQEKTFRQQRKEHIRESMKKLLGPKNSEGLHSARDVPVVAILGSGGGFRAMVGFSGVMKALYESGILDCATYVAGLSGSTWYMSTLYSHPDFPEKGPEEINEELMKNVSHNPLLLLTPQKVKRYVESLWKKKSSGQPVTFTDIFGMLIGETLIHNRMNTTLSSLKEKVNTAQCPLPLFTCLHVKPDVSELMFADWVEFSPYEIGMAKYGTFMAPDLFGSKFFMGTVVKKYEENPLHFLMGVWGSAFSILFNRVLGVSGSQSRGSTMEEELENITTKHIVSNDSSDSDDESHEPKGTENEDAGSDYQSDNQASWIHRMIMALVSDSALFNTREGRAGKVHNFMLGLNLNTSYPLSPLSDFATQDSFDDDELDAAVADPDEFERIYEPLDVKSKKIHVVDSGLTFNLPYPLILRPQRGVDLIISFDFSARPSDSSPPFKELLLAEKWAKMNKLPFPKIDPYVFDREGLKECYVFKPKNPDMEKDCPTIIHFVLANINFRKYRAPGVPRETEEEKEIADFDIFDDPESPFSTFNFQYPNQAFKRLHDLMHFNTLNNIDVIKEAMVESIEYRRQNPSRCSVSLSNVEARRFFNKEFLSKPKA
The experiment in a line: cPLA2 Inhibitory Activity. It is filed as biochemical. The note with it: 1-palmitoyl-2-[14C]-arachidonoyl-sn-glycero-3-phosphocholine 2.5 μM, sn-1,2-dioleoylglycerol 1.25 μM; pH 7.5, 15 min at 37° C. The essentials: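 Radiometric assay in 50 mM HEPES pH 7.5 with 1 mM CaCl2, 150 mM NaCl, 0.1 mg/ml BSA and 1.7 mM DTT; compound and substrate added, reaction started with enzyme, 15 min at 37° C. Released fatty acids extracted (Dole method), counted by liquid scintillation versus no-compound control.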

For `O=C1NC(=S)S/C1=C\c1ccc(C(=O)NC[C@@H]2C[C@@H](SCc3ccccc3-c3ccccc3)CN2C(=O)c2ccccc2C(=O)c2ccc(F)cc2)cc1` [Compound I-6], the IC50 was 260 nM in experiment [1] and 71 nM in experiment [2].
On the same counts, the results for `O=C1NC(=O)/C(=C/c2ccc(C(=O)NC[C@@H]3C[C@@H](SCc4ccccc4-c4ccccc4)CN3C(=O)c3ccccc3C(=O)c3ccc(F)cc3)s2)S1` [Compound I-7] are 690 nM and 39 nM.
In the case of `O=C1NC(=S)S/C1=C\c1ccc(C(=O)NC[C@@H]2C[C@@H](SCc3ccccc3-c3ccccc3)CN2C(=O)c2ccccc2C(=O)c2ccc(F)cc2)s1` [Compound I-8], the figures for the IC50 in experiment [1] and in experiment [2] were 1000 nM and 33 nM, respectively.
As for `O=C1NC(=O)/C(=C/c2ccc(S(=O)(=O)NC[C@@H]3C[C@@H](SCc4ccccc4-c4ccccc4)CN3C(=O)c3ccccc3C(=O)c3ccc(F)cc3)s2)S1` [Compound I-9], the IC50 in experiment [1] was 1800 nM; in experiment [2], 240 nM.
In the case of `O=C1NC(=S)S/C1=C\c1ccc(S(=O)(=O)NC[C@@H]2C[C@@H](SCc3ccccc3-c3ccccc3)CN2C(=O)c2ccccc2C(=O)c2ccc(F)cc2)s1` [Compound I-10], the IC50 in experiment [1] stood at 320 nM; in experiment [2] it was 760 nM.
On to `O=C1NC(=O)/C(=C/c2ccc(NC(=O)[C@@H]3C[C@@H](SCc4ccccc4-c4ccccc4)CN3C(=O)c3ccccc3C(=O)c3ccc(F)cc3)cc2)S1` [Compound J-1], for which the IC50 in experiment [1] came to 120 nM; in experiment [2], 84 nM.
On to `O=C1NC(=S)S/C1=C\c1ccc(NC(=O)[C@@H]2C[C@@H](SCc3ccccc3-c3ccccc3)CN2C(=O)c2ccccc2C(=O)c2ccc(F)cc2)cc1` [Compound J-2], for which the IC50 is 960 nM in experiment [1] and 23 nM in experiment [2].
For `O=C1NC(=O)/C(=C/c2ccc(NC(=O)[C@@H]3C[C@@H](SCc4ccccc4-c4ccccc4)CN3C(=O)c3ccccc3C(=O)c3ccc(F)cc3)s2)S1` [Compound J-3], the IC50 in experiment [1] was found to be 5700 nM; in experiment [2] it was 430 nM.
For the molecule `O=C1NC(=S)S/C1=C\c1ccc(NC(=O)[C@@H]2C[C@@H](SCc3ccccc3-c3ccccc3)CN2C(=O)c2ccccc2C(=O)c2ccc(F)cc2)s1` [Compound J-4], the IC50 in experiment [1] worked out at 5200 nM; in experiment [2], 810 nM.
For the molecule `O=C1NC(=S)S/C1=C\c1ccc(NC(=O)[C@@H]2C[C@@H](SCc3ccccc3-c3ccccc3)CN2C(=O)c2ccccc2C(=O)c2ccc(F)cc2)c(O)c1` [Compound J-7], the IC50 in experiment [1] is 6200 nM; in experiment [2], 500 nM.
On the same counts, the results for `O=C1NC(=O)/C(=C/c2ccc(C(=O)NC[C@@H]3C[C@@H](N(Cc4ccccc4)Cc4ccccc4)CN3C(=O)c3ccccc3C(=O)c3ccc(F)cc3)cc2)S1` [Compound M-3] are 3100 nM and 60 nM.
Regarding `CC(C)CN(Cc1ccccc1)[C@@H]1C[C@@H](CNC(=O)c2ccc(/C=C3\SC(=O)NC3=O)cc2)N(C(=O)c2ccccc2C(=O)c2ccc(F)cc2)C1` [Compound M-5], the IC50 in experiment [1] was 3000 nM; in experiment [2] it was 100 nM.
With `CN(Cc1ccccc1-c1ccccc1)[C@@H]1C[C@@H](CNC(=O)c2ccc(/C=C3\SC(=O)NC3=O)cc2)N(C(=O)c2ccccc2C(=O)c2ccc(F)cc2)C1` [Compound M-6], the figures for the IC50 in experiment [1] and in experiment [2] were 1500 nM and 140 nM, respectively.
As to `CN(Cc1ccccc1-c1ccccc1)[C@@H]1C[C@@H](CNC(=O)c2ccc(/C=C3\SC(=S)NC3=O)cc2)N(C(=O)c2ccccc2C(=O)c2ccc(F)cc2)C1` [Compound M-7], the results for the IC50 in experiment [1] and in experiment [2] were 1500 nM and 270 nM, respectively.
On to `CCN(Cc1ccccc1-c1ccccc1)[C@@H]1C[C@@H](CNC(=O)c2ccc(/C=C3\SC(=O)NC3=O)cc2)N(C(=O)c2ccccc2C(=O)c2ccc(F)cc2)C1` [Compound M-8], for which the IC50 in experiment [1] was found to be 800 nM; in experiment [2] it was 60 nM.
As to `CC(C)N(Cc1ccccc1-c1ccccc1)[C@@H]1C[C@@H](CNC(=O)c2ccc(/C=C3\SC(=O)NC3=O)cc2)N(C(=O)c2ccccc2C(=O)c2ccc(F)cc2)C1` [Compound M-9], the figures for the IC50 in experiment [1] and in experiment [2] were 3600 nM and 39 nM, respectively.
On the same counts, the results for `CC(C)CN(Cc1ccccc1-c1ccccc1)[C@@H]1C[C@@H](CNC(=O)c2ccc(/C=C3\SC(=O)NC3=O)cc2)N(C(=O)c2ccccc2C(=O)c2ccc(F)cc2)C1` [Compound M-10] are 270 nM and 22 nM.
On the same counts, the results for `CC(C)CCN(Cc1ccccc1-c1ccccc1)[C@@H]1C[C@@H](CNC(=O)c2ccc(/C=C3\SC(=O)NC3=O)cc2)N(C(=O)c2ccccc2C(=O)c2ccc(F)cc2)C1` [Compound M-11] are 970 nM and 36 nM.
For the molecule `CN(C(c1ccccc1)c1ccccc1)[C@@H]1C[C@@H](CNC(=O)c2ccc(/C=C3\SC(=O)NC3=O)cc2)N(C(=O)c2ccccc2C(=O)c2ccc(F)cc2)C1` [Compound M-12], the results for the IC50 in experiment [1] and in experiment [2] were 230 nM and 94 nM, respectively.
The matching figures for `O=C1NC(=O)/C(=C/c2ccc(C(=O)NC[C@@H]3C[C@@H](N(CC4CC4)C(c4ccccc4)c4ccccc4)CN3C(=O)c3ccccc3C(=O)c3ccc(F)cc3)cc2)S1` [Compound M-14]: 1400 nM and 27 nM.
Consider `CC(C)CN(C(c1ccccc1)c1ccccc1)[C@@H]1C[C@@H](CNC(=O)c2ccc(/C=C3\SC(=O)NC3=O)cc2)N(C(=O)c2ccccc2C(=O)c2ccc(F)cc2F)C1` [Compound M-17], for which the 50% inhibitory concentration (IC50) in experiment [1] stood at 1000 nM; in experiment [2], 4.1 nM.
On to `CC(C)CN(Cc1ccccc1)[C@@H]1C[C@@H](CNC(=O)/C=C/c2ccc(/C=C3\SC(=O)NC3=O)cc2)N(C(=O)c2ccccc2C(=O)c2ccc(F)cc2)C1` [Compound M-18], for which the IC50 in experiment [1] is 8800 nM; in experiment [2] it was 79 nM.
The matching figures for `CC(C)CN(C(c1ccccc1)c1ccccc1)[C@@H]1C[C@@H](CNC(=O)/C=C/c2ccc(/C=C3\SC(=O)NC3=O)cc2)N(C(=O)c2ccccc2C(=O)c2ccc(F)cc2F)C1` [Compound M-21]: 310 nM and 2.1 nM.
On to `CN(Cc1ccccc1)[C@@H]1C[C@@H](C(=O)Nc2ccc(/C=C3\SC(=S)NC3=O)cc2)N(C(=O)c2ccccc2C(=O)c2ccc(F)cc2)C1` [Compound N-1], for which the IC50 in experiment [1] came to 760 nM; in experiment [2], 140 nM.
In the case of `CN(Cc1ccccc1-c1ccccc1)[C@@H]1C[C@@H](C(=O)Nc2ccc(/C=C3\SC(=O)NC3=O)cc2)N(C(=O)c2ccccc2C(=O)c2ccc(F)cc2)C1` [Compound N-2], the IC50 in experiment [1] is 1800 nM; in experiment [2], 130 nM.
As for `CN(Cc1ccccc1-c1ccccc1)[C@@H]1C[C@@H](C(=O)Nc2ccc(/C=C3\SC(=S)NC3=O)cc2)N(C(=O)c2ccccc2C(=O)c2ccc(F)cc2)C1` [Compound N-3], the IC50 worked out at 1000 nM in experiment [1] and 59 nM in experiment [2].
In the case of `O=C1NC(=O)/C(=C/c2ccc(C(=O)NC[C@@H]3C[C@@H](Cc4ccccc4-c4ccccc4)CN3C(=O)c3ccccc3C(=O)c3ccc(F)cc3)cc2)S1` [Compound O-1], the IC50 in experiment [1] amounted to 760 nM; in experiment [2] it was 200 nM.
As for `O=C1NC(=O)/C(=C/c2ccc(C(=O)NC[C@@H]3C[C@@H](COc4ccccc4-c4ccccc4)CN3C(=O)c3ccccc3C(=O)c3ccc(F)cc3)cc2)S1` [Compound O-2], the 50% inhibitory concentration (IC50) in experiment [1] came out at 230 nM; in experiment [2], 58 nM.

Usually IC50 stands for the concentration that inhibits the measured activity by half. Low readings indicate higher potency, high ones lower potency.
